The target of assay [1] is CYP3A4 (Homo sapiens, UniProt P08684). Kind of assay: biochemical.
Description: CYP450 inhibition assays utilized microsomes from insect cells that express recombinant human CYP2D6 and CYP3A4 isoforms (Corning) with substrates of CYP2D6 (3-[2-(N,N-diethyl-N-methylammonium)-ethyl]-7-methoxy-4-methylcoumarin iodide, AMMC) and CYP3A4 (7-benzyloxy-4-trifluoromethylcoumarin, BFC) capable of producing fluorescent metabolites.[51],[52] […] A 100 mM sodium phosphate buffer was prepared and adjusted to a pH 7.4. In a separate falcon tube, a 2× enzyme–substrate (E–S) solution was prepared in phosphate buffer. The final concentrations of CYP2D6 and AMMC were 10 nM and 4 μM, respectively. The final concentrations of CYP3A4 and BFC were 20 nM and 40 μM, respectively. In a separate falcon tube, 2X solutions of the NADPH regenerating system (NRS) were prepared in phosphate buffer. The final concentrations for each NRS component in the corresponding assays were as follows: (1) CYP2D6 assay = 0.008 mM NADPH, 3.3 mM glucose-6-phosphate, and 0.4 U of glucose-6-phosphate dehydrogenase/mL and (2) CYP3A4 assay = 2.45 mM NADPH, 24.7 mM glucose-6-phosphate, and 1.25 U of glucose-6-phosphate dehydrogenase/mL.
Both enzymatic assays were conducted in a 96-well microtiter plate (Black, Corning Costar) with a final volume of 100 μL per well. Preparation of each plate began with the addition of 74 μL of the 2× E–S solution in the first well and 50 μL to all remaining wells (2–11) in the same row. […] 3-Fold serial dilutions of the test compounds were subsequently conducted by removing 25 μL from the first well and adding it to the second, followed by removing 25 μL from the second well and adding it to the third, and so forth until the 10th row. This procedure provided final concentrations for the test compound ranging from 100 to 0.01 μM across the same row (50 μL total for each well). Well 11 contained no test compound (0% inhibition and 100% activity). Well 12 contained 50 μL of substrate and test compound (100 μM) absent from the enzyme (0% activity, 100% inhibition). Wells 11 and 12 were used as controls for background fluorescence as described below. Each plate was then incubated for 30 min at 37 °C. After incubation was complete, reactions were initiated by the addition of 50 μL of 2X NRS to wells 1–12 (final well volume of 100 μL). Fluorescence measurements were immediately (<1 min) taken using a microplate reader (BioTek Synergy Neo 2). CYP2D6 was monitored at Ex/Em = 410/460 nm, and CYP3A4 was monitored at Ex/Em = 410/538 nm. Next, measurements were conducted in kinetic mode with scans every 5 min for 60 min. Two time points (30 and 60 min) were then chosen in the linear phase of the kinetic graph (reaction progression curve), and the corresponding relative fluorescence units (RFUs) at these time points were used to determine the rate of change in fluorescence according to the following equations [drawing 6] 3 [drawing 7] 4 [drawing 8] 5 where eq 3 defines the difference in RFUs between the 60 and 30 min time points, eq 4 normalizes the background-adjusted ΔRFU to no inhibitor control, and eq 5 converts % inhibition to % activity.
The resulting data were then exported and analyzed using Graph Pad Prism v7. The concentration of each test compound required to inhibit 50% substrate metabolism (IC50) was subsequently calculated from the resulting 10-point concentration–response curves (normalized fluorescence versus log[inhibitor]) using four-parameter logistic nonlinear regression (see Figure S4B for a representative example).
Assay [2] concerns the target T1, GluN1/GluN2A (Rattus norvegicus, UniProt P35439+Q00959).
T1 construct: expressed in transfected cells; host or cells: Xenopus laevis oocytes (cRNA injection)
Kind of assay: Two-electrode voltage-clamp recordings, Xenopus laevis oocytes, GluN1/GluN2A. As to conditions: 100 μM glutamate, 30 μM glycine; for remaining activity at 30 µM: 30 μM test compound, mean ± SEM, read-out: I 30 μM / I control GluN2A; for IC50: read-out: IC50 GluN2A [95% CI]. The assay is classed as cell-based. As to the method: (§1) All target compounds were evaluated for NMDAR antagonism using two-electrode voltage-clamp recordings from Xenopus laevis oocytes coexpressing recombinant GluN1 and GluN2A-D subunits (Table 1).[32],[42],[33] All analogues were assessed as either a racemic (2b, 2e–2r) or diastereomeric (2d) mixture to simplify purification and streamline in vitro analysis. […] Moreover, as illustrated by the significant loss of NMDAR activity observed with nitrile 2e, the DQP allosteric site necessitated an H-bond donor/acceptor relationship at the carboxylate position. […] The loss of NMDAR activity observed with the trifluoro analogue 2j (Table S1) reinforced the necessity for an H-bond donor/acceptor relationship to maintain allosteric binding and established that fluorine substitution alone is ineffective. […] A single methyl substitution of the amide in compound 2q improved selectivity against GluN2A and had similar potency as 2a, whereas dual methyl substitution reduced potency (2r). We expect that this is likely due to the ability of the […] of the amide to accept hydrogen bonds while the amide can readily donate a proton.
(§2) Unfertilized Xenopus laevis oocytes were obtained from Ecocyte (Austin, TX), or ovaries were purchased from Xenopus 1 (Dexter, MI) and oocytes prepared as previously described.[42],[47] Two-electrode voltage-clamp recordings were performed on oocytes expressing recombinant rat GluN1/GluN2A, GluN1/GluN2B, GluN1/GluN2C, or GluN1/GluN2D. cDNAs for rat GluN1-1a (referred to as GluN1; NCBI Reference Sequence NM_017010.2), GluN2A (NM_012573.4), GluN2B (NM_012574.1), GluN2C (NM_012575.3), and GluN2D (NM_022797.2) were provided by Dr. S. Heinemann from the Salk Institute, Dr. S. Nakanishi from Kyoto University, and Dr. P. Seeburg from the University of Heidelberg. Oocyte isolation, cRNA synthesis, and cRNA injections were performed as previously described.[32],[33],[47] Briefly, Xenopus laevis oocytes were injected with 5–10 ng of cRNA in RNase-free water with the GluN1:GluN2 ratio ranging from 1:1 to 1:5. Oocytes were incubated at 15–19 °C in Barth’s solution consisting of (in mM) 88 NaCl, 1 KCl, 2.4 NaHCO3, 10 HEPES, 0.82 MgSO4, 0.33 Ca(NO3)2, and 0.41 CaCl2 supplemented with 100 μg/mL gentamycin, 40 μg/mL streptomycin, and 50 μg/mL penicillin. Recordings were performed 2–4 days after injection with extracellular recording solution containing (in mM) 90 NaCl, 1 KCl, 10 HEPES, 0.5 BaCl2, and 0.01 EDTA at pH 7.4 adjusted with NaOH. To prevent a gradual increase in current response over the course of the experiment, some oocytes expressing GluN1/GluN2A were injected with 20–50 nL of 2–50 mM K-BAPTA. Concentration–response curves for test compounds were generated by applying a maximally effective concentration of glutamate (100 μM) and glycine (30 μM), followed by glutamate and glycine with variable concentrations of test compounds up to 30 μM. The test compounds were prepared as 20 mM stock solutions in DMSO and diluted to the final concentration in recording solution. The DMSO content was 0.05–0.5% (v/v). […] Methods for off-target analysis are given in the Supporting Information.
(§3) Confidence intervals were determined for the log(IC50). The time course of relaxation during inhibitor application or deactivation following rapid removal of NMDA or glutamate was fitted by the equation [drawing 5] 2

In assay [3] the target is GluN1/GluN2C (Rattus norvegicus, UniProt Q00961). Kind of assay: Two-electrode voltage-clamp recordings, Xenopus laevis oocytes, GluN1/GluN2C. In kind it is cell-based. Set-up: GluN2B (NM_012574.1), GluN2C (NM_012575.3), and GluN2D (NM_022797.2) were provided by; expressed in transfected cells; host or cells: Xenopus laevis oocytes (cRNA injection). As to conditions: for I3 μM/Icontrol GluN2C: tested at 3 μM; for I3 μM/Icontrol GluN2C / I / I control GluN2C: 100 μM glutamate, 30 μM glycine; for I / I control GluN2C: tested at 10 μM (footnote b). The protocol:
as §1, §2, §3
In general terms: Two-electrode voltage clamp holds a large cell at a set potential and records current.

Assay [4] concerns the target T2, GluN1/GluN2A (Rattus norvegicus, UniProt Q00959).
T2 construct: expressed in transfected cells; host or cells: Xenopus laevis oocytes (cRNA injection)
Kind of assay: Two-electrode voltage-clamp recordings, Xenopus laevis oocytes, GluN1/GluN2A. The assay is classed as cell-based. As to conditions: mean ± SEM; for I3 μM/Icontrol GluN2A: tested at 3 μM; for I3 μM/Icontrol GluN2A / I / I control GluN2A: 100 μM glutamate, 30 μM glycine; for I / I control GluN2A: tested at 10 μM (footnote b). As to the method:
as §1, §2, §3

For orientation: IC50 means the point on the concentration scale where inhibition reaches its midpoint.

Several values for one entry are separate records, joined by “and”; a condition that tells them apart may be missing. Identical values can stand only once. Marks after values point to notes of the source that are not given here.

Chain of CYP3A4 (P08684 whole entry): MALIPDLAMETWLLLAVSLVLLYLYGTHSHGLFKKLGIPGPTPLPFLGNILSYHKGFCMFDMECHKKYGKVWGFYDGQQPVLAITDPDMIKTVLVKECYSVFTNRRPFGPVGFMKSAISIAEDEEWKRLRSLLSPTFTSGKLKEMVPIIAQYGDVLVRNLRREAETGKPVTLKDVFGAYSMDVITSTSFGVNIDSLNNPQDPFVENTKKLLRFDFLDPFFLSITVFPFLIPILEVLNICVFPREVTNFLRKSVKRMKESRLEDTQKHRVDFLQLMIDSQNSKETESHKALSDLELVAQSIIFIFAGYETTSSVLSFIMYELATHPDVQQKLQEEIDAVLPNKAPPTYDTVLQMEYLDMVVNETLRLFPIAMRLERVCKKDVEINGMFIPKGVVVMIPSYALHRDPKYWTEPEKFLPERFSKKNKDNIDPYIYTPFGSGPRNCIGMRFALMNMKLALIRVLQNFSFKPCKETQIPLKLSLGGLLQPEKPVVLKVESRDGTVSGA
Chain of GluN1/GluN2C (Q00961 20-1237, other chains not shown): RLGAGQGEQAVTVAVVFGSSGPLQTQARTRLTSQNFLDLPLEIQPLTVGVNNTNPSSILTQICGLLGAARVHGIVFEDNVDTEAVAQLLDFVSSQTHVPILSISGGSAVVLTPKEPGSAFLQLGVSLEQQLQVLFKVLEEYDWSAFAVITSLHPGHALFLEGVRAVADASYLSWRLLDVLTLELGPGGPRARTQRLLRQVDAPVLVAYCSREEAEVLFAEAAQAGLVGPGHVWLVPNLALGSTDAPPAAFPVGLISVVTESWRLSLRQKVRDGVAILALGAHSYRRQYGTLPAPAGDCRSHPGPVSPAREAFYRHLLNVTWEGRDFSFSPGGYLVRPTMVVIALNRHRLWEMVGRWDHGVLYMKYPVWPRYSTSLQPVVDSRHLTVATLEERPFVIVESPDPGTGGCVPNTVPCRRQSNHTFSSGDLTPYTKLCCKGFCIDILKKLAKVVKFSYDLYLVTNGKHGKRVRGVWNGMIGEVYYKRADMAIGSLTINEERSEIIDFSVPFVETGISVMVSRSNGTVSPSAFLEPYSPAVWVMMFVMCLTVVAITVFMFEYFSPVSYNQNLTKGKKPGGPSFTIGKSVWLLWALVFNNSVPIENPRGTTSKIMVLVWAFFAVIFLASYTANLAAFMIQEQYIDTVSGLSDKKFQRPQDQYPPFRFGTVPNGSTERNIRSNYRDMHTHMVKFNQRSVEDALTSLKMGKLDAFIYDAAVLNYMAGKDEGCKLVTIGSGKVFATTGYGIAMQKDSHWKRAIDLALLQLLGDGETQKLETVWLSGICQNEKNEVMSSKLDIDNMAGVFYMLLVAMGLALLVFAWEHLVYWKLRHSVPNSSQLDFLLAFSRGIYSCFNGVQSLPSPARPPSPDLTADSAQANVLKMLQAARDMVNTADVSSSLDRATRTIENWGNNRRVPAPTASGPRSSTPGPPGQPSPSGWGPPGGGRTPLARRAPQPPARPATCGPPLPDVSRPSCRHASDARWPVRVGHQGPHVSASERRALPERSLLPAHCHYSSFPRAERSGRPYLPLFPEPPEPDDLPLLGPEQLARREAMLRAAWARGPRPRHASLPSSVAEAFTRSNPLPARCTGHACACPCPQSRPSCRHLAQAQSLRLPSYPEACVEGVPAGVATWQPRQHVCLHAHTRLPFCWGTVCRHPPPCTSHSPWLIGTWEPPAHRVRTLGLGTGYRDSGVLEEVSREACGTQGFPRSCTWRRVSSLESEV
T2 sequence (Q00959 23-1464, other chains not shown): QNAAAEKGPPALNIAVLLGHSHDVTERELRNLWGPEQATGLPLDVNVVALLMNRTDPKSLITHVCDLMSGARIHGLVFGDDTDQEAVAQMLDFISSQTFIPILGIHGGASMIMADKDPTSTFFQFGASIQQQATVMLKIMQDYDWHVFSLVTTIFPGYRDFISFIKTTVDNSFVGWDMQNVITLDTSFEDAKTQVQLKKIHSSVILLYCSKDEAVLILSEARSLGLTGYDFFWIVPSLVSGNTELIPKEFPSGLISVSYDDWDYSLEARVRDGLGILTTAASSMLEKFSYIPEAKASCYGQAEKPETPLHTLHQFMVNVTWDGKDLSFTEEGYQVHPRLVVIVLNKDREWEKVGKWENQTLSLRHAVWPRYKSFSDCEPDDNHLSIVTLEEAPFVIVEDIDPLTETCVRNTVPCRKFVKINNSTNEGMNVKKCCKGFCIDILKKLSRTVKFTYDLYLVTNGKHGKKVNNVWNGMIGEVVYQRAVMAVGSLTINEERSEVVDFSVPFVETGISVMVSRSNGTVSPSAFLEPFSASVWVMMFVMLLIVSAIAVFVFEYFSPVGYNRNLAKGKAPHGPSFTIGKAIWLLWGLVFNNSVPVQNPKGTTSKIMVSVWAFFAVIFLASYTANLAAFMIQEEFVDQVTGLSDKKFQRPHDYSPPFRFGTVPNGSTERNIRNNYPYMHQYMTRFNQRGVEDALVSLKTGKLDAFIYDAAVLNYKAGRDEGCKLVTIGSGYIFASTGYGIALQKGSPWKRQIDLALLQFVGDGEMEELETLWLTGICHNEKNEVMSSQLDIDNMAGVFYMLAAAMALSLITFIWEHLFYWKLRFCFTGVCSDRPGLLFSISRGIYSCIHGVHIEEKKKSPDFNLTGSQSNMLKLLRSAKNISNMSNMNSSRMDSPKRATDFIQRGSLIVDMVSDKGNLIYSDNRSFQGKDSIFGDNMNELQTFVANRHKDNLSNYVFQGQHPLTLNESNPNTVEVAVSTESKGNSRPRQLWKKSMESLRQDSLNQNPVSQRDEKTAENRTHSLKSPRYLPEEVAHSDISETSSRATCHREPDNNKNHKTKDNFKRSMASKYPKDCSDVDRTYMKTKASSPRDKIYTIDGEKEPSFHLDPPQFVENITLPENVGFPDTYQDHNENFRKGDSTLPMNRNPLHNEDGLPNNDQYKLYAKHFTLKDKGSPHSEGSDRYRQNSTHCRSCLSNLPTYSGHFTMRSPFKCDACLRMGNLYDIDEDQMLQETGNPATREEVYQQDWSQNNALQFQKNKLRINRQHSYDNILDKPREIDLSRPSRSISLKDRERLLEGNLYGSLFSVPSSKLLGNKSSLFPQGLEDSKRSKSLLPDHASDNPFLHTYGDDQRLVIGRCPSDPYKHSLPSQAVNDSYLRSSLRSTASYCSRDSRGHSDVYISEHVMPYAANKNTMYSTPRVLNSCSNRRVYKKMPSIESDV
T1 sequence (Q00959 23-1464, other chains not shown): as above

In the case of `CC(C)OC(=O)CC(F)(F)C(=O)N1N=C(c2c(-c3ccc(Cl)cc3)c3ccccc3[nH]c2=O)CC1c1ccc(Cl)cc1` (centres unmarked) [2m], the midpoint of inhibition in assay [1], the IC50, lay at 6.3 ± 1.1 µM. Further, the remaining activity at 30 µM in assay [2] is 97 ± 2.3%.

Regarding `NC(=O)CC(F)(F)C(=O)N1N=C(c2c(-c3ccc(Cl)cc3)c3ccccc3[nH]c2=O)CC1c1ccc(Cl)cc1` (centres unmarked) [2k], in assay [3] (mean ± SEM), the “I3 μM/Icontrol GluN2C” value is listed as 22 ± 5.2 ^b (3,16) %. Further, the 50% inhibitory concentration (IC50) in assay [1] was 2 ± 0.4 µM; in assay [2], 5.8 µM. For the same molecule, in assay [4], the “I3 μM/Icontrol GluN2A” value was 35 ± 6.5 ^b (3,9) %.

As for `CNC(=O)CC(F)(F)C(=O)N1N=C(c2c(-c3ccc(Cl)cc3)c3ccccc3[nH]c2=O)CC1c1ccc(Cl)cc1` (centres unmarked) [2q], the “I / I control GluN2C” value in assay [3] (mean ± SEM) was 16 ± 1.6 ^b (3, 20) %. The half-maximal inhibitory concentration (IC50) in assay [1] came out at 7.7 ± 1.7 µM; in assay [2], 37 µM. Also, the “I / I control GluN2A” value in assay [4] is given as 83 ± 3.9 ^b (2,12) %.

As for `O=C(CC(F)(F)C(=O)N1N=C(c2c(-c3ccc(Cl)cc3)c3ccccc3[nH]c2=O)CC1c1ccc(Cl)cc1)OCc1ccccc1` (centres unmarked) [2p], the IC50 in assay [1] was above 20 µM. Also, the remaining activity at 30 µM in assay [2] came to 105 ± 0.72%.

Regarding `O=C(O)CC(F)(F)C(=O)N1N=C(c2c(-c3ccc(Cl)cc3)c3ccccc3[nH]c2=O)C[C@H]1c1ccc(Cl)cc1` [(S)-(−)-2i], the “% control GluN1/GluN2C” value in assay [3] (1 µM compound, 100 µM glutamate, 30 µM glycine, mean ± SEM) amounted to 16 ± 2.9%. Moreover, in assay [3] (abstract), the “selectivity for GluN2C-containing NMDARs compared to GluN2A- and GluN2B-containing receptors” value was above 100 fold. For the same molecule, the “I3 μM/Icontrol GluN2C” value in assay [3] (mean ± SEM) is recorded as 13 ± 2.6 (3, 16) %. The 50% inhibitory concentration (IC50) in assay [2] was found to be 4.7 µM. For the same molecule, the “% control GluN1/GluN2A” value in assay [4] (1 µM compound, 100 µM glutamate, 30 µM glycine) was determined as 74 ± 2.1%. Besides, the “I3 μM/Icontrol GluN2A” value in assay [4] is 67 ± 2.0 (3, 14) %.

In turn, `O=C(CC(F)(F)C(=O)N1N=C(c2c(-c3ccc(Cl)cc3)c3ccccc3[nH]c2=O)CC1c1ccc(Cl)cc1)OCC1CC1` (centres unmarked) [2n] showed a half-inhibitory concentration (IC50) in assay [1] of 6.7 ± 1.2 µM. Also, the remaining activity at 30 µM in assay [2] was found to be 100 ± 1.3%.

`O=C(O)CCC(=O)N1N=C(c2c(-c3ccc(Cl)cc3)c3ccccc3[nH]c2=O)CC1c1ccc(Cl)cc1` (centres unmarked) [2a]: the 50% inhibitory concentration (IC50) in assay [1] stood at 17 ± 3.4 µM.

As to `O=C(O)CC(F)(F)C(=O)N1N=C(c2c(-c3ccc(Cl)cc3)c3ccccc3[nH]c2=O)CC1c1ccc(Cl)cc1` (centres unmarked) [2i], the “I3 μM/Icontrol GluN2C” value is 13 ± 2.5% and 13 ± 2.5 ^b (2,12) % in assay [3] (mean ± SEM); 13 ± 2.5 (2, 12) % in assay [3] (mean ± SEM, listed as racemic 2i). Further, the IC50 is above 20 µM in assay [1] and 5.6 µM in assay [2]. Besides, the “I3 μM/Icontrol GluN2A” value in assay [4] was 61 ± 2.4% and 61 ± 2.4 ^b (2,10) %; in assay [4] (listed as racemic 2i), 61 ± 2.4 (2, 10) %.

On to `CCOC(=O)CC(F)(F)C(=O)N1N=C(c2c(-c3ccc(Cl)cc3)c3ccccc3[nH]c2=O)CC1c1ccc(Cl)cc1` (centres unmarked) [2l], for which it took 7.8 ± 0.1 µM to reach half-maximal inhibition in assay [1] (IC50). Moreover, the remaining activity at 30 µM in assay [2] was determined as 100 ± 3.2%.

Take `CN(C)C(=O)CC(F)(F)C(=O)N1N=C(c2c(-c3ccc(Cl)cc3)c3ccccc3[nH]c2=O)CC1c1ccc(Cl)cc1` (centres unmarked) [2r]: in assay [3] (mean ± SEM), the “I / I control GluN2C” value is on record as 28 ± 2.2 ^b (4,20) %. Besides, the IC50 in assay [1] was above 20 µM. Further, the “I / I control GluN2A” value in assay [4] is given as 70 ± 3.9 ^b (3,13) %.

Take `CC(C)(C)COC(=O)CC(F)(F)C(=O)N1N=C(c2c(-c3ccc(Cl)cc3)c3ccccc3[nH]c2=O)CC1c1ccc(Cl)cc1` (centres unmarked) [2o]: the “I / I control GluN2C” value in assay [3] (mean ± SEM) is 87 ± 0.8%. For the same molecule, the IC50 in assay [1] amounted to 12 ± 0.04 µM. In addition, the “I / I control GluN2A” value in assay [4] came to 97 ± 2.2%.

These data come from publication PMC10485906, “Development of a Dihydroquinoline–Pyrazoline GluN2C/2D-Selective Negative Allosteric Modulator of the N-Methyl-D-aspartate Receptor” (ACS Chemical Neuroscience, 2023).
